Experiments:
[1] = Confirmation of temperature responsive property of ionic liquid (lower critical solution temperature by absorbance at 450 nm); format: physicochemical; details: absorbance 450 nm, heating 20° C.→95° C. (0.5° C./minute)
Method: (§1) Whether an ionic liquid is a temperature-responsive ionic liquid having a lower critical solution temperature (LCST-type temperature-responsive ionic liquid) is determined by measuring the absorbance of the liquid at a wavelength within a visible light region while gradually increasing the temperature and observing white turbidity, in other words, an abrupt increase in absorbance at a certain temperature caused by an increase in degree of hydrophobicity. The specific procedure is as follows. First, a mixture of an ionic liquid and water is prepared and the layer state at room temperature is observed. Then, the mixture is placed in a refrigerator of 4° C., sufficiently stirred and allowed to stand still for one hour. The state of the mixture is observed. If the layer state of the ionic liquid-water mixture at room temperature is the same as the layer state at 4° C., the mixture is increased in temperature at a rate of 0.5° C./minute within the range of 20° C. to 95° C. and the absorbance of the mixture is measured at 450 nm. Based on a change in absorbance, whether the ionic liquid thus measured is LCST-type temperature-responsive ionic liquid or not can be checked.
The obtained data of absorbance change can be analyzed by differential calculus according to Tm (nucleic acid melting temperature) analysis program to obtain the lower critical solution temperature. In contrast, if the phase state of the ionic liquid-water mixture at room temperature is different from the state at 4° C., the mixture is increased in temperature at a rate of 0.5° C./minute within the range of 5° C. to 40° C. and the absorbance of the mixture is measured at 450 nm. Based on a change in absorbance, whether the ionic liquid thus measured is LCST-type temperature-responsive ionic liquid or not can be checked.
(§2) More specifically, the temperature responsive property was examined by measuring a absorbance at 450 nm at different temperatures in the following measurement conditions to obtain a change in absorbance.
(0.5° C./minute) • Analysis method: calculation by differential calculus using Tm (nucleic acid melting temperature) analysis program
(§3) (0.5° C./minute) • Analysis method: calculation by differential calculus using Tm (nucleic acid melting temperature) analysis program.
as §3

[2] = test system: human cultured epidermal model (LabCyte EPI-MODEL12); details: pregabalin 10 mg/mL in 100 mmol/L aqueous solution or dispersion of the ionic liquid, 300 μL donor, 37° C., control in water 252
Method: A human cultured epidermal model (LabCyte EPI-MODEL12, Japan Tissue Engineering Co., Ltd.) was used. The phase on the stratum corneum side of the model was defined as a donor phase, whereas the phase on the stratum basal side of the model was defined as a receptor phase. Whether a temperature-responsive ionic liquid enhances the permeation of pregabalin from the donor phase to the receptor phase was examined. The test was carried out in an incubator of 37° C. Pregabalin was dissolved in water, or a 100 mmol/L aqueous solution or water dispersion of a temperature-responsive ionic liquid to a concentration of 10 mg/mL. Each solution (300 μL) was added to the donor phase. Twenty-four hours later, a receptor fluid was sampled and analyzed by LC-MS/MS to obtain the amount of pregabalin permeated. The Hanks' balanced salt solution was used as the receptor fluid.

[3] = mixture of ionic liquid and water as obtained in the synthesis
Method: as §1, §2

[4] = test system: human cultured epidermal model (LabCyte EPI-MODEL12); details: 37° C.
Method: A human cultured epidermal model (LabCyte EPI-MODEL12, Japan Tissue Engineering Co., Ltd.) was used. The phase on the stratum corneum side of the model was defined as a donor phase, whereas the phase on the stratum basal side of the model was defined as a receptor phase. […] The test was carried out in an incubator of 37° C. […] Each solution (300 μL) was added to the donor phase. […] The Hanks' balanced salt solution was used as the receptor fluid.

[5] = cited from earlier work
[6] = ionic liquid-water sample, UV1650PC, initial waiting 10 minutes
[7] = V-750, initial waiting 5 minutes

Compound | LCST (lower critical solution temperature) [1, 6] | LCST (lower critical solution temperature) [1, 7] | compatibility with water at room temperature [3] | also measured
CCCC[P+](CCCC)(CCCC)CCCC.O=S(=O)([O-])c1ccccc1 [Reference Example 2-sample, tetrabutylphosphonium benzenesulfonate] | None | – | – | –
CCCCCCCCCC(=O)O.C[N+](C)(C)CCO [Reference Example 3-sample, cholinium decanoate, reference compound] | – | None | – | 24-hour Cumulative permeation amount of pregabalin [2]: 354 μg/cm^2
C[N+](C)(C)CCO.O=C([O-])c1ccccc1O [Reference Example 5-sample, cholinium salicylate] | – | None | – | –
CCCC[P+](CCCC)(CCCC)CCCC.O=C([O-])c1ccc(C(F)(F)F)cc1O [Synthesis Example 1-sample, tetrabutylphosphonium 4-(trifluoromethyl)salicylate] | 23.6 °C | – | separated from water at room temperature | 24-hour Cumulative permeation amount of lidocaine hydrochloride monohydrate ([4]; lidocaine hydrochloride monohydrate 10 mg/mL in 100 mmol/L aqueous solution or dispersion of the ionic liquid, control in water 308): 1100 μg/cm^2; 24-hour Cumulative permeation amount of tramadol hydrochloride ([4]; tramadol hydrochloride 10 mg/mL in 100 mmol/L aqueous solution or dispersion of the ionic liquid, control in water 300): 2510 μg/cm^2; 24-hour Cumulative permeation amount of pregabalin [2]: 3030 μg/cm^2
CCCC[P+](CCCC)(CCCC)CCCC.O=S(=O)([O-])c1ccc(Cl)cc1 [Synthesis Example 12-sample, tetrabutylphosphonium 4-chlorobenzenesulfonate] | 25.6 °C | – | separated from water at room temperature | –
CCCC[P+](CCCC)(CCCC)CCCC.Cc1ccc(S(=O)(=O)[O-])cc1 [Synthesis Example 16-sample, tetrabutylphosphonium p-toluenesulfonate] | 54.6 °C | – | compatible with water at room temperature | –
CCc1cccc2c3c([nH]c12)C(CC)(CC(=O)O)OCC3 (stereo not drawn) [etodolac] | – | – | – | solubility of etodolac to water [5]: 110 µg/mL
diisopropanolammonium decanoate [Reference Example 4-sample] | – | None | – | –

Reference: patent US20240058452A1, “PHARMACEUTICAL COMPOSITION CONTAINING TEMPERATURE-RESPONSIVE IONIC LIQUID” (priority 2019, published 2024)
